{"source": "ChEMBL document CHEMBL1770076", "about": "“(+)-Arisugacin A--computational evidence of a dual binding site covalent inhibitor of acetylcholinesterase” (Bioorg Med Chem Lett, 2011)", "key": {"Cholinesterase": {"biological_target": "Cholinesterase (Homo sapiens, UniProt P06276)", "sequence (P06276 whole entry)": "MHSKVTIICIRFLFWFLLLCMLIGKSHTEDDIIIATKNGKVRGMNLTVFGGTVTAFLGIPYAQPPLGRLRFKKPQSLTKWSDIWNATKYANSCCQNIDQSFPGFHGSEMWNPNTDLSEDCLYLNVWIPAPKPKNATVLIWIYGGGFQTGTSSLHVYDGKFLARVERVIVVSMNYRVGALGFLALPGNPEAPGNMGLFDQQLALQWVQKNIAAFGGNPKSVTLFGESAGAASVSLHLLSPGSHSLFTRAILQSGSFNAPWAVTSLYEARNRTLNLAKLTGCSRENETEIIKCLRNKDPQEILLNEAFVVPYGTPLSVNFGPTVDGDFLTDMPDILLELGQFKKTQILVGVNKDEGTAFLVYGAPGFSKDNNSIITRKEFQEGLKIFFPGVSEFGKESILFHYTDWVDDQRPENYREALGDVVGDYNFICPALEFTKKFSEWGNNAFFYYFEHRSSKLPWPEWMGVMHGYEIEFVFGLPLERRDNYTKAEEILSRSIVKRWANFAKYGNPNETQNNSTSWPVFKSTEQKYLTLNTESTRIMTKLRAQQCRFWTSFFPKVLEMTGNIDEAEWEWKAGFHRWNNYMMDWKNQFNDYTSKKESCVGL"}, "Acetylcholinesterase": {"biological_target": "Acetylcholinesterase (Homo sapiens, UniProt P22303)", "sequence (P22303 whole entry)": "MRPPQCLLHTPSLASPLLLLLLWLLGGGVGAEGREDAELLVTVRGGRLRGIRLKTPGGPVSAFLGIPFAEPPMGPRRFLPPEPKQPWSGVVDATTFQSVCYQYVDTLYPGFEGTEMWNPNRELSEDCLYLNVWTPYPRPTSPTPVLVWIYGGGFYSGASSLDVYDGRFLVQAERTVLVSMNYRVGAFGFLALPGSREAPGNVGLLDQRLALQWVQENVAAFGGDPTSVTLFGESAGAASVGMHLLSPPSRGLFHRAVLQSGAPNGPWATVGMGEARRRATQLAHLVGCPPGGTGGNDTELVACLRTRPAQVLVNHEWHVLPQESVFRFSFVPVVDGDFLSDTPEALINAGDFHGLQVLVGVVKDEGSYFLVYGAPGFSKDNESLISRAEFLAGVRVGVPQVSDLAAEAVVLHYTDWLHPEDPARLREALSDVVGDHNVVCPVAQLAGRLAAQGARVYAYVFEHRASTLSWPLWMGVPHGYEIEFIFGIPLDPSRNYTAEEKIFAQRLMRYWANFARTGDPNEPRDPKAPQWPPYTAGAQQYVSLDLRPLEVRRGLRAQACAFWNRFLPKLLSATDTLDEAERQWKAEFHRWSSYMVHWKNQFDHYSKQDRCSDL", "description": "Inhibition of AChE-induced amyloid beta aggregation"}}, "data": [{"smiles": "C/C=C1\\[C@H]2C=C(C)C[C@]1(N)c1ccc(=O)[nH]c1C2", "note": "[HUPERZINE A]", "values": [{"measurement": "IC50", "setting": "Cholinesterase", "result": 100, "unit": "nM"}]}, {"smiles": "COc1ccc(-c2cc3c(c(=O)o2)C[C@]2(O)[C@@]4(C)C(=O)C=CC(C)(C)[C@]4(O)CC[C@@]2(C)O3)cc1OC", "values": [{"measurement": "IC50", "setting": "Cholinesterase", "result": 18000, "unit": "nM"}]}, {"smiles": "COc1cc(-c2cc3c(c(=O)o2)C[C@]2(O)[C@@]4(C)C(=O)C=CC(C)(C)[C@]4(O)CC[C@@]2(C)O3)cc(OC)c1OC", "note": "[TERRITREM B]", "values": [{"measurement": "IC50", "setting": "Acetylcholinesterase", "result": 6, "unit": "nM"}]}]}
